# In patent US20050180968A1, “Use of relaxin for stimulating the development of activated human T cells into TH1-like effectors” (priority 2000, published 2005):
# Assays:
# [1] = system: established CD4+ T cell clones; experiment: RT-PCR of IFN-? and IL-4 mRNA in established CD4+ T cell clones; assay type: cell-based, human; conditions: two clones, 10^−8 M RLX vs absence
# Procedure: To induce cytokine mRNA expression in established T cell clones for RNA extraction 2×10^5 T blasts from each clone were cultured with insolubilized anti-CD3 (1?g/ml). After 12 h, pellets were washed four times with PBS at pH 7.2 and kept frozen until used. Total RNA was extracted using Ultraspec RNA Isolation kit (Biotex Laboratories, Inc. Houston, Tex., USA). […] Following extraction, 1 ?g of RNA was reverse transcribed by M-MLV reverse transcriptase (Gibco-BRL, Gaithersburg, Md., USA). All cDNA were amplified with primers for ?-actin to test the quality of cDNA and then subjected to PCR amplification with primers for IFN-? and IL-4. In each PCR reaction a positive control and a negative control (without cDNA as template to exclude contamination) were included. PCR analysis was carried out in a DNA thermal cycler (Idaho Technology, Idaho Falls, ID, USA). […] The size of the amplified products was evaluated by comparison with molecular weight markers run in parallel lanes.
# The intensity of the bands for ?-actin obtained by RT-PCR was measured in all the samples to confirm that the same quantities of total RNA were reverse transcribed. In addition, the intensity of the bands for IFN-? obtained by PCR amplification (MIMIC and samples) and by Southern blot was also measured. […]
# [2] = system: established CD4+ T cell clones (Th0-like); experiment: Cytokine production (ELISA) by established CD4+ T cell clones stimulated with insolubilized anti-CD3 mAb; assay type: cell-based, human; conditions: for levels of IFN-?: 12 CD4+ clones, insolubilized anti-CD3 mAb, p<0.03 vs absence of RLX (3.6±0.98 ng/ml)
# Procedure: To generate T cell clones, PBMC from normal subjects were seeded under limiting dilution conditions (0.3 cell/well) in six round-bottom microwell plates containing […] (6000 rad) allogeneic PBMC (as feeder cells) and PHA (1% vol/vol) in a final volume of 0.2 ml complete medium supplemented with 20 U/ml IL-2 and 10% FCS. Growing microcultures where then supplemented, at weekly intervals, with 20 U/ml IL-2 and 10^5 irradiated feeder cells. The phenotype distribution of T cell clones was assessed by flow cytometer-analysis.
# (§1) To quantitate cytokine production in supernatants of TT-specific shortterm T cell lines and established T cell clones, […] were cultured in the presence of 20 ng/ml PMA plus 100 ng/ml anti-CD3 mAb. After 36 h culture, cell-free supernatants were collected, filtered, and stored in aliquots at −70° C. until used. Determination of IFN-? was performed by a commercial ELISA (Biosource International, Camarill, Calif.). […] Values of the cytokine content 5 SD over those of control supernatants obtained by stimulation of irradiated feeder cells alone were regarded as positive.
# The two curves shown in FIG. 2 relate to two CD4^+ T cell clones stimulated with immobilised anti-CD3 antibody in the presence or in the absence of different concentrations of RLX for 36 h. […] Total RNA was extracted as described herein after. 1?g of RNA was reversed transcribed and cDNA were amplified and then subjected to PCR amplification with primers for IFN-? and IL4 as discussed more in detail below.
# To provide unequivocal evidence of the direct effect of RLX on T cells, the activity of RLX on the IFN-? mRNA expression and IFN-? production by established T cell clones was examined. To this end, 12 CD4^+ T cells clones showing a Th0-like profile (production of both IFN-? and IL-4) were cultured in the absence of any other cell type and stimulated with insolubilized anti-CD3 mAb in the presence or absence of RLX. […] The levels of IL-4 produced by the same CD4+T cell clones were not altered by the presence of RLX.
# [3] = system: TT-specific short-term T cell lines from PBMC; experiment: Cytokine production by TT-specific short-term T cell lines expanded with or without RLX; assay type: cell-based, human
# Procedure: TT-specific short-term T cell lines were generated from PBMC of TT-vaccinated normal donors according to a technique described in M. P. Piccinni et al <<Progesterone favors the development of human T helper cells producing Th2-type cytokines and promotes both IL-4 production and membrane CD30 expression in established TH1 cell clones>>, in J. Immmunol., 1995, 155: 128-133.
# Briefly, 10^5 PBMC in 2 ml RPMI 1640 medium supplemented with 2 mM L-glutamine, 2×10^−5M 2-ME and 5% human serum (complete medium) were stimulated in 24-well flat-bottom plates for 5 days with the antigen (0.2?g/ml TT) in the absence or in the presence of RLX at concentrations of 10^−10, 10^−9, 10^−8, 10^−7 and 10^−6 M. Human IL-2 (20 U/ml) was then added and cultures continued for another 9 days. Viable T blasts were resuspended in complete medium and tested for their antigen specificity. To this end, 2×10^4 T blasts were seeded in microplates and cocultured for 48 h with irradiated (6000 rad) autologous PBMC (5×10^4) in the presence of medium alone or 0.1 ? g/ml TT, respectively. After a 16-h pulse with 0.5 ?Ci [^3H]thimidine, cultures where harvested and radioactivity measured by liquid scintillation. The phenotype distribution of TT-specific T cells was assessed by flow cytometer analysis.
# as §1
# On the other hand, no effect of RLX dilution can be observed on the production of IL-4.
# [4] = system: PSS patients; conditions: cited from earlier work
# [5] = system: adherent cell-enriched fractions of PBMC (monocytes/APC); experiment: IL-12 and IFN-? release by adherent cell-enriched fractions of PBMC stimulated with TT; assay type: cell-based, human; conditions: stimulated 5 days with TT, absence vs presence of RLX
# [6] = system: CD4+ T cell clone; experiment: Competitive PCR for IFN-? mRNA in a CD4+ T cell clone; assay type: cell-based, human
# Procedure: Competitive PCRfor IFN-?was performed using a competitorcontrol fragment (PCR MIMIC; Clontech Laboratories Inc. Palo Alto, Calif., USA) according to the manufacturer's instructions. PCR MIMIC was used together with sample cDNA in the reaction mixture; sample and control cDNA were amplified with the same primers, so they competed for the same primers in the same reaction, but were distinguished on gel electrophoresis by differences in length. By knowing the amount of PCR MIMIC added to the reaction, the amount of target cDNA and therefore the initial mRNA levels could be determined. Each sample (and competitor fragment) was subjected to 25 cycles of amplification as described above.
# The intensity of the bands for ?-actin obtained by RT-PCR was measured in all the samples to confirm that the same quantities of total RNA were reverse transcribed. In addition, the intensity of the bands for IFN-? obtained by PCR amplification (MIMIC and samples) and by Southern blot was also measured. A CCD video camera C3077/01 (Hamamatsu Photonics, Tokyo, Japan) interfaced with an Apple Macintosh personal computer was used. Acquisition of images was obtained with Imagequest IQBase software (Hamamatsu Photonics). Image processing and analysis was performed with the free-share software IMAGE (National Institutes of Health, Research Services, Branch NIMH, version 1.28).
# [7] = system: sensitized guinea pigs; conditions: RLX treatment; cited from earlier work
# [8] = FIG. 1, mean values, cultures with antigen plus 200 U/ml IL-12 as printed
# [9] = expanded in presence vs absence of RLX
substance,measurement,setting,value
relaxin [RLX],IFN-? mRNA expression (RT-PCR),[1],higher levels
same,IL-4 mRNA levels (RT-PCR),[1],the same
same,levels of IFN-?,[2]; 10^−7 M RLX,5.87±1.63 ng/m
same,levels of IFN-?,[2]; 10^−8 M RLX,8.20 ± 2.27 ng/mL
same,levels of IL-4,"[2]; same 12 CD4+ T cell clones, presence vs absence of RLX",not altered
same,production of IFN-? in TT-specific T cell lines as a function of RLX concentration (FIG. 1),[3]; [8],increases with the concentration of RLX
same,production of IL-4 in TT-specific T cell lines as a function of RLX concentration (FIG. 1),[3]; [8],no effect
same,production of IFN-? in TT-specific T cells,"[3]; expanded in presence of RLX at 10^−9, 10-8 and 10^−7 M vs absence of RLX",significantly higher
same,production of IL-4 in TT-specific T cells,[3]; [9],no significant differences
same,production of IL-5 in TT-specific T cells,[3]; [9],no significant differences
same,production of IL-6 in TT-specific T cells,[3]; [9],no significant differences
same,total skin score,"[4]; PSS patients, control phase trial",improvement
same,tolerability,[4]; RLX treatment compared with administration of IFN-?,better tolerated
same,concentration of IFN-? in supernatants,[5],no significant differences
same,concentration of IL-12 in supernatants,[5],no significant differences
same,"increase of IFN-? mRNA (competitive PCR, image analysis)","[6]; T cell clone no. 2, 10^−8 M RLX vs absence",approximately tenfold increase
same,IFN-? mRNA amount (competitive PCR),"[6]; T cell clone no. 2, presence of 10^−8 M RLX, absence of RLX 4.1×10^−3",5×10^−2 attomol/? I
same,allergic asthma-like reaction,[7],reduced
same,bronchial hyperresponsiveness,[7],reduced
